Data reported in patent US20240182531A1, “KV1.3 Blockers” (priority 2021, published 2024).
Where a SMILES comes first, the peptide text is derived from it. Bridges are numbered along the chain shown (N, C = ends). [ ]: non-standard residue; d: D form. Nle = CCCC[C@H](N)C(=O)O

Legend:
[1] = target: T1, human Kv1.1 (Homo sapiens, UniProt Q09470); assay: cell-based; conditions: ratio of patch clamp IC50 values
T1 construct: expressed in transfected cells; host or cells: CHO

[2] = target: T2, human Kv1.2 (Homo sapiens, UniProt P16389); assay: cell-based; conditions: ratio of patch clamp IC50 values
T2 construct: expressed in transfected cells; host or cells: CHO

[3] = target: T3, human Kv1.6 (Homo sapiens, UniProt P17658); assay: cell-based; conditions: ratio of patch clamp IC50 values
T3 construct: expressed in transfected cells; host or cells: CHO

[4] = target: Rat whole blood (Rattus norvegicus, UniProt P15384); format: cell-based; conditions: IL-17A release, thapsigargin, 24 Hr, at least 2 replicates
Sequence of Rat whole blood (P15384 whole entry): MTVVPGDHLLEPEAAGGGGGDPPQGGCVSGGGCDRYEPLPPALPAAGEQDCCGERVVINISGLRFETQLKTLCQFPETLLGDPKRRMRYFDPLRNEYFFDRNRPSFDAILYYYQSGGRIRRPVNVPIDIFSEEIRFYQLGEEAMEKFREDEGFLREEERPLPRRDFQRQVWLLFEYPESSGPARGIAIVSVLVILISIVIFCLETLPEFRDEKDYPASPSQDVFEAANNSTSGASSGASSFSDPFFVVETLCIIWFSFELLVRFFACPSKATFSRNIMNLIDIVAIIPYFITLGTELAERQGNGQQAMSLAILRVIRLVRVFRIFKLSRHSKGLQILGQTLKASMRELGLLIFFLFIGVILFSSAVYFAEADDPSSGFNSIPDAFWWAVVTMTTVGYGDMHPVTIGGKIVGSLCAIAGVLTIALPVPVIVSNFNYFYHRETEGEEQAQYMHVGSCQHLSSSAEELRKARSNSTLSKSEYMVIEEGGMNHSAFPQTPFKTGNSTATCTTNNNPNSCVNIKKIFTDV

T1 sequence (Q09470 whole entry): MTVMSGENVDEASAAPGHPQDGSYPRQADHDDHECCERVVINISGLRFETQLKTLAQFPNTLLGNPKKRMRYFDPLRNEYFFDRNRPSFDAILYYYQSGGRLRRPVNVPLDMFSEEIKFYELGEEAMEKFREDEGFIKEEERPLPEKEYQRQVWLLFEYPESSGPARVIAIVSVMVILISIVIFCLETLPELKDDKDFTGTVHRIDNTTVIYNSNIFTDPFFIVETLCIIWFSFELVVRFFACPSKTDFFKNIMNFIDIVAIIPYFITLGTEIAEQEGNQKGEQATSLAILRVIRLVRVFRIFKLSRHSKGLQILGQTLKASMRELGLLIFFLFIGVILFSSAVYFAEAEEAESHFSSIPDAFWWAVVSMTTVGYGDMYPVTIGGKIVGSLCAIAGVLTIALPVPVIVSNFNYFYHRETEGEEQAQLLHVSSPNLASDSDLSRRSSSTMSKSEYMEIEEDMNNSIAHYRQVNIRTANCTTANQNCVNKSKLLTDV
T2 sequence (P16389 whole entry): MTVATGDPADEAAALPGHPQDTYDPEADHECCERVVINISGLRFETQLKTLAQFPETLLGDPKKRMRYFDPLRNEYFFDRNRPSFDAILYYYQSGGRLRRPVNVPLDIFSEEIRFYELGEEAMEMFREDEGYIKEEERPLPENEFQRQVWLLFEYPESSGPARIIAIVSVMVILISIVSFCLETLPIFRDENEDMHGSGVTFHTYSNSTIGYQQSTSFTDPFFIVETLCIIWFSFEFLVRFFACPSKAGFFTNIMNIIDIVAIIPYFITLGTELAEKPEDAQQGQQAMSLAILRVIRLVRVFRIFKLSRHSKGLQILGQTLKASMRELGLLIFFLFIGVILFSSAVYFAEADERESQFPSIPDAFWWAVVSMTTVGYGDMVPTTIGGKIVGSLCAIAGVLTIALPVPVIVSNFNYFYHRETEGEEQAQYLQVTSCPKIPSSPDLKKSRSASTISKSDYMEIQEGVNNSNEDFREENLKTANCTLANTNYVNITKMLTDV
T3 sequence (P17658 whole entry): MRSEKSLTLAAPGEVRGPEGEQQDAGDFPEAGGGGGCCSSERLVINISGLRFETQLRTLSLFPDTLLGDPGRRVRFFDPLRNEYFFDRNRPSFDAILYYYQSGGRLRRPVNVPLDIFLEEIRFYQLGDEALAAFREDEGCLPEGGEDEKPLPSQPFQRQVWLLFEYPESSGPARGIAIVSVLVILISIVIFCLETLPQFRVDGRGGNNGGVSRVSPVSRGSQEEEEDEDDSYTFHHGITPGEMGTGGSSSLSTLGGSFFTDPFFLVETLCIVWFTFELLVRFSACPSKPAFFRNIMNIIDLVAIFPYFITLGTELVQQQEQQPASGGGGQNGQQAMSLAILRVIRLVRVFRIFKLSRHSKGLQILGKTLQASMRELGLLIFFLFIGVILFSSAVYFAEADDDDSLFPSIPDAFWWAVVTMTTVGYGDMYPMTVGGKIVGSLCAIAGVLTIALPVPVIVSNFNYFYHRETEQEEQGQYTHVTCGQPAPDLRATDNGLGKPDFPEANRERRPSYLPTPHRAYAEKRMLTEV

Structure (SMILES) | Selectivity ratio Kv1.1/Kv1.3 [1] | Selectivity ratio Kv1.2/Kv1.3 [2] | Selectivity ratio Kv1.6/Kv1.3 [3] | IC50 [4] [nM]
CC[C@H](C)[C@@H]1NC(=O)[C@H](C)NC(=O)[C@H](CCCCN)NC(=O)[C@H](CC(C)C)NC(=O)[C@@H]2CSSC[C@@H](C(=O)N[C@@H](Cc3ccc(O)cc3)C(=O)N3CCC[C@H]3C(=O)N[C@@H](CCCNC(=N)N)C(N)=O)NC(=O)[C@H](CCCCN)NC(=O)[C@@H]3CSSC[C@H](NC(=O)[C@H](CCC(=O)O)NC(=O)[C@H](C(C)C)NC(=O)[C@H](CO)NC(=O)[C@H](C)NC(=O)[C@H](CO)NC(=O)[C@@H](NC(=O)[C@H](CCCNC(=N)N)NC(=O)[C@H](CCSC)NC(=O)[C@H](CC(=O)O)NC(=O)[C@H](CCSC)NC(=O)[C@@H](N)CC(N)=O)CSSC[C@H](NC(=O)[C@H](CCCCN)NC(=O)CNC(=O)[C@H](Cc4ccccc4)NC(=O)[C@H]([C@@H](C)CC)NC(=O)[C@H](CO)NC(=O)CNC1=O)C(=O)N[C@@H](CCSC)C(=O)N[C@@H](CC(N)=O)C(=O)N[C@@H](CCCCN)C(=O)N[C@@H](CCCCN)C(=O)N3)C(=O)N[C@@H](CCCCN)C(=O)N[C@@H](CCC(N)=O)C(=O)N[C@@H](CC(C)C)C(=O)N2 [compound 23] (H-NMDMRCSASVECKQLCLKAIGSIFGKCMNKKCKCYPR-NH2; disulfide 6-27, 12-32, 16-34) | >12700 | 1080 | >12700 | 3.2
CC[C@H](C)[C@@H]1NC(=O)[C@H](C)NC(=O)[C@H](CCCCN)NC(=O)[C@H](CCCCN)NC(=O)[C@@H]2CSSC[C@@H](C(=O)N[C@@H](Cc3ccc(O)cc3)C(=O)N3CCC[C@H]3C(=O)N[C@@H](CCCNC(=N)N)C(N)=O)NC(=O)[C@H](CCCCN)NC(=O)[C@@H]3CSSC[C@H](NC(=O)[C@H](CCC(=O)O)NC(=O)[C@H](C(C)C)NC(=O)[C@H](CO)NC(=O)[C@H](C)NC(=O)[C@H](CO)NC(=O)[C@@H](NC(=O)[C@H](CCCNC(=N)N)NC(=O)[C@H](CCSC)NC(=O)[C@H](CC(=O)O)NC(=O)[C@H](CCSC)NC(=O)[C@@H](N)CC(N)=O)CSSC[C@H](NC(=O)[C@H](CCCCN)NC(=O)CNC(=O)[C@H](Cc4ccccc4)NC(=O)[C@H]([C@@H](C)CC)NC(=O)[C@H](CO)NC(=O)CNC1=O)C(=O)N[C@@H](CCSC)C(=O)N[C@@H](CC(N)=O)C(=O)N[C@@H](CCCCN)C(=O)N[C@@H](CCCCN)C(=O)N3)C(=O)N[C@@H](CCCCN)C(=O)N[C@@H](CCC(N)=O)C(=O)N[C@@H](CCCCN)C(=O)N2 [compound 24] (H-NMDMRCSASVECKQKCKKAIGSIFGKCMNKKCKCYPR-NH2; disulfide 6-27, 12-32, 16-34) | >13500 | 202 | 1955 | 0.56
CC[C@H](C)[C@@H]1NC(=O)[C@H](CCCNC(=N)N)NC(=O)[C@H](CCCCN)NC(=O)[C@H](CC(C)C)NC(=O)[C@@H]2CSSC[C@@H](C(=O)N[C@@H](Cc3ccc(O)cc3)C(=O)N3CCC[C@H]3C(=O)N[C@@H](CCCNC(=N)N)C(N)=O)NC(=O)[C@H](CCCCN)NC(=O)[C@@H]3CSSC[C@H](NC(=O)[C@H](CCC(=O)O)NC(=O)[C@H](C(C)C)NC(=O)[C@H](CO)NC(=O)[C@H](C)NC(=O)[C@H](CO)NC(=O)[C@@H](NC(=O)[C@H](CCCNC(=N)N)NC(=O)[C@H](CCSC)NC(=O)[C@H](CC(=O)O)NC(=O)[C@H](CCSC)NC(=O)[C@@H](N)CC(N)=O)CSSC[C@H](NC(=O)[C@H](CCCCN)NC(=O)CNC(=O)[C@H](Cc4ccccc4)NC(=O)[C@H]([C@@H](C)CC)NC(=O)[C@H](CO)NC(=O)CNC1=O)C(=O)N[C@@H](CCSC)C(=O)N[C@@H](CC(N)=O)C(=O)N[C@@H](CCCCN)C(=O)N[C@@H](CCCCN)C(=O)N3)C(=O)N[C@@H](CCCCN)C(=O)N[C@@H](CCC(N)=O)C(=O)N[C@@H](CCCCN)C(=O)N2 [compound 60] (H-NMDMRCSASVECKQKCLKRIGSIFGKCMNKKCKCYPR-NH2; disulfide 6-27, 12-32, 16-34) | >9900 | 187 | 3062 | –
CC[C@H](C)[C@@H]1NC(=O)[C@H](CO)NC(=O)CNC(=O)[C@H](Cc2ccc(O)cc2)NC(=O)[C@H](C)NC(=O)[C@H](CCCCN)NC(=O)[C@H](CC(C)C)NC(=O)[C@@H]2CSSC[C@@H](C(=O)N[C@@H](Cc3ccc(O)cc3)C(=O)N3CCC[C@H]3C(=O)N[C@@H](CCCNC(=N)N)C(N)=O)NC(=O)[C@H](CCCCN)NC(=O)[C@@H]3CSSC[C@H](NC(=O)[C@H](CCC(=O)O)NC(=O)[C@H](C(C)C)NC(=O)[C@H](CO)NC(=O)[C@H](C)NC(=O)[C@H](CO)NC(=O)[C@@H](NC(=O)[C@H](CCCNC(=N)N)NC(=O)[C@H](CCSC)NC(=O)[C@H](CC(=O)O)NC(=O)[C@H](CCSC)NC(=O)[C@@H](N)CC(N)=O)CSSC[C@H](NC(=O)[C@H](CCCCN)NC(=O)CNC(=O)[C@H](Cc4ccccc4)NC1=O)C(=O)N[C@@H](CCSC)C(=O)N[C@@H](CC(N)=O)C(=O)N[C@@H](CCCCN)C(=O)N[C@@H](CCCCN)C(=O)N3)C(=O)N[C@@H](CCCCN)C(=O)N[C@@H](CCC(N)=O)C(=O)N[C@@H](CCCCN)C(=O)N2 [compound 61] (H-NMDMRCSASVECKQKCLKAYGSIFGKCMNKKCKCYPR-NH2; disulfide 6-27, 12-32, 16-34) | >8800 | 426 | >8800 | –
CCCC[C@H](NC(=O)[C@H](CC(=O)O)NC(=O)[C@H](CCCC)NC(=O)[C@@H](N)CO)C(=O)N[C@@H](CCCNC(=N)N)C(=O)N[C@H]1CSSC[C@@H]2NC(=O)[C@H](CCCCN)NC(=O)CNC(=O)[C@H](Cc3ccccc3)NC(=O)[C@H]([C@@H](C)CC)NC(=O)[C@H](CO)NC(=O)CNC(=O)[C@H]([C@@H](C)CC)NC(=O)[C@H](C)NC(=O)[C@H](CCCCN)NC(=O)[C@H](CC(C)C)NC(=O)[C@@H]3CSSC[C@@H](C(=O)N[C@@H](Cc4ccc(O)cc4)C(=O)N4CCC[C@H]4C(=O)N[C@@H](CCCNC(=N)N)C(N)=O)NC(=O)[C@H](CCCCN)NC(=O)[C@H](CSSC[C@H](NC(=O)[C@H](CCC(=O)O)NC(=O)[C@H](C(C)C)NC(=O)[C@H](CO)NC(=O)[C@H](C)NC(=O)[C@H](CO)NC1=O)C(=O)N[C@@H](C)C(=O)N[C@@H](CCC(N)=O)C(=O)N[C@@H](CO)C(=O)N3)NC(=O)[C@H](CCCCN)NC(=O)[C@H](CCCCN)NC(=O)[C@H](CC(N)=O)NC(=O)[C@H](CCSC)NC2=O [compound 78] (H-S[Nle]D[Nle]RCSASVECAQSCLKAIGSIFGKCMNKKCKCYPR-NH2; disulfide 6-27, 12-32, 16-34) | >14600 | 5596 | >14600 | –
